Data taken from patent publication EP1662258A1, “A substrate free in vitro protein kinase assay” (Sirenade Pharmaceuticals AG, priority 2004, dated 2006).
Values joined by “and” are separate entries in the source; they are usually repeats but may differ in a detail not shown here. Equal values may be shown once. “Also recorded” adds a separate entry of the source.

Assays:
Src kinase Srcv2 = Src kinase Srcv2 (Homo sapiens, UniProt P12931); experiment: Src protein tyrosine kinase auto-phosphorylation (autoactivation) assay with Srcv2
Description: After mixing the kinase with the compound the final DMSO concentration was 40%. Then, 190 µl of the preincubated compound/kinase solution are transfered to 96 well Ni-NTA plates (Ni-NTA HisSorb™ plates, white, Qiagen (cat.No.35081) and incubated for 30 min at room temperature on a rotation shaker at 300 rpm to allow binding of the kinase to the wells. The kinase/compound solution containing unbound kinase and compound is carefully replaced by 200 µl of DMSO free initiation buffer (50 mM Tris/HCl, pH 7.2, 10 mM MgCl2, 100 µM ATP) per well and the plate is incubated for 20 min at room temperature on a rotation shaker at 300 rpm.
The initiation buffer is then removed carefully and the plate is washed two times with PBS-Tween (PBS-T) buffer (50 mM potassium phosphate, pH 7.2, 150 mM NaCl, 0.05 % Tween 20) (200 µl per well per washing step).
The antibody solution is removed carefully and the plate is washed three times with 200 µl PBS-T buffer (200 µl per well per washing step).
• 2.7.1 The assay was used for qualitative and quantitative analysis of different compound classes. […] The assay was performed either manually or in a semiautomatic approach using the EP3 robotor (Perkin Elmer) for automated pipetting steps. […] Solution was removed and 200 µl assay buffer, containing 100µM ATP was added and the plate was incubated for 30 min at RT on a rotation shaker. Solution was removed and wells were washed 3 times with 200µl PBST. Afterwards 200 µl 1:2000 diluted anti p-Tyr antibody in PBST-0.5% BSA was added and the plate was incubated for 30 min at RT on a rotation shaker. The degree of src kinase auto-phosphorylation was detected with an anti p-Tyr-antibody as described above. […] The DMSO concentration was 30 %. […] The measurements were carried out either as unicates or as triplicates. The standard deviation is shown by error bars.
In order to get information about the quality of the assay the z' was determined for the assay. For determination of the maximal counts src v2 in the absence of inhibitor was used.

Src kinase (Srcv1) = Src kinase (Srcv1) (Homo sapiens, UniProt P12931); experiment: Src protein tyrosine kinase auto-phosphorylation (autoactivation) assay, Srcv1 immobilised on Ni-NTA plates, anti p-Tyr chemoluminiscence readout
Description: The assay will be performed as a solid phase assay, which can be done by immobilisation of the kinase (Srcv1) via its His6-tag on Ni-NTA coated 96 wells (Qiagen), as this assay system allows washing steps. Thus it was evaluated, whether it is possible to detect auto-phosphorylated src kinase, immobilized on Ni-NTA coated plates with an HRP labeled anti p-Tyr antibody. Therefore, Src kinase (1.0µM) was incubated for 30 min either in the presence and absence of 50 µM ATP at RT in incubation buffer (50 mM Tris/HCl, pH 7.2, 10 mM MgCl2). Afterwards the solution was diluted to 1.0, 0.5, 0.25 and 0.0 µM final src protein concentration in PBS and incubated for 30 min (V= 200µl) on NiNTA coated plates at RT on a rotation shaker (300 rpm). After removal of the supernatant and 3 times washing with 200 µl PBS-T, immobilized, phosphorylated src kinase was detected. Therefore, a solution of HRP-labeled anti p-Tyr antibody (Abcam) (200 µl, 1:2000 diluted in PBST-0.5% BSA) was added to the wells and the plate was incubated for 30 min at RT °C, 300 rpm. After removal of the supernatant and 3 times washing with 200 µl PBS-T, chemoluminiscence development buffer was added (200 µl of a 1:1 mixture of ECL substrate, Amersham) and chemoluminiscence signal was quantified using Wallac1420 Multilabel counter (Victor^2).
Afterwards 100 µl assay buffer containing 100 µM ATP was added (except for the negative control which was incubated with 100 µl assay buffer without ATP) and the mixture was transfered to Ni-NTA coated plates and further incubated for 20 min at RT on a rotation shaker (300 rpm). The degree of src kinase auto-phosphorylation was detected with an anti p-Tyr-antibody as described above (see Figure 3a).
The solution was transfered on NiNTA plates and incubated for 30 min with 100 µl assay buffer containing 100 µM ATP for the auto-phosphorylation of src. The degree of src kinase auto-phosphorylation was detected with an anti p-Tyr-antibody as described above (see Figure 3b).

chemoluminiscence signal (counts), mean, first series (Src kinase Srcv2): 5948
chemoluminiscence signal (counts), mean, second series (Src kinase Srcv2): 5700
chemoluminiscence signal (counts), single values, first series (Src kinase Srcv2): 5816 and 5922 and 5781 and 6275
chemoluminiscence signal (counts), single values, second series (Src kinase Srcv2): 6060 and 5465 and 5523 and 5752
inhibition of Srcv2 kinase (dose response curves, in words) (Src kinase Srcv2): showed inhibition
inhibition of the kinase activity (in words) (Src kinase (Srcv1); Src kinase (100µl, 2.0 µM), PP1 1.25 mM, 10% DMSO, ATP 100 µM, Figure 3A): clear inhibition
Structure (SMILES): Cc1ccc(-c2nn(C(C)(C)C)c3ncnc(N)c23)cc1 [PP1]
inhibition of auto-phosphorylation of src kinase (in words) (Src kinase (Srcv1); 100 µl src kinase (1.0 µM), compound 1.25 mM, 30% DMSO, 100 µM ATP, Figure 3b): potently inhibits; also recorded: strongest inhibition
